ChEMBL document CHEMBL3217615, “Novel 3,5-bis(arylidiene)-4-piperidone based monocarbonyl analogs of curcumin: anticancer activity evaluation and mode of action study” (2014)

Assays:
Assay type in all cases: functional
[1] = Growth inhibition of human SF295 cells assessed as cell growth at 10^-8 M after 48 hrs by sulforhodamine B assay; settings: SF-295, 48 h; for growth at 0.01 µM: read-out: Activity; for TGI: read-out: pTGI (converted)
SF-268 = test: Growth inhibition of human SF268 cells assessed as cell growth at 10^-7 M after 48 hrs by sulforhodamine B assay; settings: SF-268, 48 h, read-out: Activity
MCF7 = test: Growth inhibition of human MCF7 cells assessed as cell growth at 10^-6 M after 48 hrs by sulforhodamine B assay; settings: MCF7, 48 h, read-out: Activity
[2] = Growth inhibition of human HOP92 cells assessed as cell growth at 10^-4 M after 48 hrs by sulforhodamine B assay; settings: HOP-92, 48 h, read-out: Activity
[3] = Growth inhibition of human OVCAR5 cells assessed as cell growth at 10^-4 M after 48 hrs by sulforhodamine B assay; settings: OVCAR-5, 48 h, read-out: Activity
COLO 205 = test: Induction of apoptosis in human COLO205 cells assessed as caspase 9 activation at 10 uM by FLICA
NCI-H23 [4] = test: Growth inhibition of human NCI-H23 cells assessed as cell growth at 10^-6 M after 48 hrs by sulforhodamine B assay; settings: NCI-H23, 48 h, read-out: Activity
HCT-116 [5] = test: Growth inhibition of human HCT116 cells after 48 hrs by sulforhodamine B assay; settings: HCT-116, 48 h; for CC50: read-out: LC50 (the source's name)
HCT-116 [6] = test: Growth inhibition of human HCT116 cells assessed as cell growth at 10^-4 M after 48 hrs by sulforhodamine B assay; settings: HCT-116, 48 h, read-out: Activity
SN12C = test: Growth inhibition of human SN12C cells after 48 hrs by sulforhodamine B assay; settings: for CC50: read-out: LC50 (the source's name)
NCI-H522 [7] = test: Growth inhibition of human NCI-H522 cells assessed as cell growth at 10^-4 M after 48 hrs by sulforhodamine B assay; settings: NCI-H522, 48 h, read-out: Activity
SK-MEL-5 [8] = test: Growth inhibition of human SK-MEL-5 cells assessed as cell growth at 10^-7 M after 48 hrs by sulforhodamine B assay; settings: SK-MEL-5, 48 h, read-out: Activity
HL-60(TB) = test: Growth inhibition of human HL-60(TB) cells assessed as cell growth at 10^-4 M after 48 hrs by sulforhodamine B assay; settings: HL-60, 48 h, read-out: Activity
NCI-H460 = test: Growth inhibition of human NCI-H460 cells assessed as cell growth at 10^-8 M after 48 hrs by sulforhodamine B assay; settings: NCI-H460, 48 h; for growth at 0.01 µM: read-out: Activity; for TGI: read-out: pTGI (converted)
PC-3 = test: Growth inhibition of human PC3 cells assessed as cell growth at 10^-4 M after 48 hrs by sulforhodamine B assay; settings: PC-3, 48 h, read-out: Activity
NCI-H522 [9] = test: Growth inhibition of human NCI-H522 cells assessed as cell growth at 10^-6 M after 48 hrs by sulforhodamine B assay; settings: NCI-H522, 48 h, read-out: Activity
[10] = Growth inhibition of human SF295 cells after 48 hrs by sulforhodamine B assay; settings: SF-295, 48 h; for CC50: read-out: LC50 (the source's name)
[11] = Growth inhibition of human UO31 cells assessed as cell growth at 10^-7 M after 48 hrs by sulforhodamine B assay; settings: UO-31, 48 h, read-out: Activity
[12] = Growth inhibition of human HCT15 cells assessed as cell growth at 10^-7 M after 48 hrs by sulforhodamine B assay; settings: HCT-15, 48 h, read-out: Activity
[13] = Growth inhibition of human NCI-ADR-RES cells assessed as cell growth at 10^-7 M after 48 hrs by sulforhodamine B assay; settings: read-out: Activity
[14] = Growth inhibition of human OVCAR8 cells assessed as cell growth at 10^-8 M after 48 hrs by sulforhodamine B assay; settings: OVCAR-8, 48 h; for growth at 0.01 µM: read-out: Activity; for TGI: read-out: pTGI (converted)
M14 = test: Growth inhibition of human M14 cells assessed as cell growth at 10^-4 M after 48 hrs by sulforhodamine B assay; settings: M14, 48 h, read-out: Activity
NCI-H226 [15] = test: Growth inhibition of human NCI-H226 cells assessed as cell growth at 10^-8 M after 48 hrs by sulforhodamine B assay; settings: NCI-H226, 48 h; for growth at 0.01 µM: read-out: Activity; for TGI: read-out: pTGI (converted)
IGROV-1 = test: Growth inhibition of human IGROV1 cells assessed as cell growth at 10^-4 M after 48 hrs by sulforhodamine B assay; settings: IGROV-1, 48 h, read-out: Activity
[16] = Growth inhibition of human BT549 cells assessed as cell growth at 10^-6 M after 48 hrs by sulforhodamine B assay; settings: BT-549, 48 h, read-out: Activity
SK-MEL-5 [17] = test: Growth inhibition of human SK-MEL-5 cells assessed as cell growth at 10^-8 M after 48 hrs by sulforhodamine B assay; settings: SK-MEL-5, 48 h; for growth at 0.01 µM: read-out: Activity; for CC50: read-out: pLC50 (the source's name) (converted); for TGI: read-out: pTGI (converted)
[18] = Growth inhibition of human LOXIMVI cells assessed as cell growth at 10^-6 M after 48 hrs by sulforhodamine B assay; settings: LOX IMVI, read-out: Activity
T47D = test: Growth inhibition of human T47D cells after 48 hrs by sulforhodamine B assay; settings: for CC50: read-out: LC50 (the source's name)
NCI-H23 [19] = test: Growth inhibition of human NCI-H23 cells assessed as cell growth at 10^-7 M after 48 hrs by sulforhodamine B assay; settings: NCI-H23, 48 h, read-out: Activity
Malme-3M = test: Growth inhibition of human MALME-3M cells assessed as cell growth at 10^-8 M after 48 hrs by sulforhodamine B assay; settings: for growth at 0.01 µM: read-out: Activity
[20] = Growth inhibition of human SF539 cells assessed as cell growth at 10^-6 M after 48 hrs by sulforhodamine B assay; settings: SF-539, 48 h, read-out: Activity
NCI-H226 [21] = test: Growth inhibition of human NCI-H226 cells assessed as cell growth at 10^-4 M after 48 hrs by sulforhodamine B assay; settings: NCI-H226, 48 h, read-out: Activity
HT-29 = test: Growth inhibition of human HT-29 cells after 48 hrs by sulforhodamine B assay; settings: HT-29, 48 h; for CC50: read-out: LC50 (the source's name)
[22] = Growth inhibition of human UACC257 cells assessed as cell growth at 10^-7 M after 48 hrs by sulforhodamine B assay; settings: UACC-257, 48 h, read-out: Activity

Cc1ccc(S(=O)(=O)N2C/C(=C\c3cc(F)cc(F)c3)C(=O)/C(=C/c3cc(F)cc(F)c3)C2)cc1
GI50 [1]: 468 nM
LC50 [1]: 15800 nM
growth at 0.01 µM [1]: 92%
TGI [1]: 2510 nM
growth at 0.1 µM (SF-268): 100%
growth at 1 µM (MCF7): 12%
growth at 100 µM [2]: -58%
growth at 100 µM [3]: -90%
Activity (COLO 205): 40.5%
growth at 1 µM (NCI-H23 [4]): 77%
GI50 (HCT-116 [5]): 209 nM
TGI (HCT-116 [5]): 543 nM
CC50 (HCT-116 [5]): 1940 nM
growth at 100 µM (HCT-116 [6]): -92%
GI50 (SN12C): 342 nM
TGI (SN12C): 1310 nM
CC50 (SN12C): 4260 nM
growth at 100 µM (NCI-H522 [7]): -94%
growth at 0.1 µM (SK-MEL-5 [8]): 89%
growth at 100 µM (HL-60(TB)): -23%
GI50 (NCI-H460): 832 nM
LC50 (NCI-H460): 9120 nM
growth at 0.01 µM (NCI-H460): 103%
TGI (NCI-H460): 2880 nM
growth at 100 µM (PC-3): -84%
growth at 1 µM (NCI-H522 [9]): -2%
GI50 [10]: 466 nM
TGI [10]: 2500 nM
CC50 [10]: 15700 nM
growth at 0.1 µM [11]: 94%
growth at 0.1 µM [12]: 80%
growth at 0.1 µM [13]: 106%
GI50 [14]: 302 nM
LC50 [14]: 16200 nM
growth at 0.01 µM [14]: 95%
TGI [14]: 1780 nM
growth at 100 µM (M14): -86%
GI50 (NCI-H226 [15]): 8710 nM
LC50 (NCI-H226 [15]): > 100000 nM
growth at 0.01 µM (NCI-H226 [15]): 97%
TGI (NCI-H226 [15]): 39800 nM
growth at 100 µM (IGROV-1): -80%
growth at 1 µM [16]: -4%
GI50 (SK-MEL-5 [17]): 288 nM
growth at 0.01 µM (SK-MEL-5 [17]): 98%
CC50 (SK-MEL-5 [17]): 3630 nM
TGI (SK-MEL-5 [17]): 1070 nM
growth at 1 µM [18]: -82%
GI50 (T47D): 1790 nM
TGI (T47D): 6090 nM
CC50 (T47D): 54300 nM
growth at 0.1 µM (NCI-H23 [19]): 100%
GI50 (Malme-3M): 275 nM
LC50 (Malme-3M): 3800 nM
growth at 0.01 µM (Malme-3M): 97%
TGI (Malme-3M; read-out: pTGI (converted)): 741 nM
growth at 1 µM [20]: 61%
growth at 100 µM (NCI-H226 [21]): -32%
GI50 (HT-29): 229 nM
TGI (HT-29): 638 nM
CC50 (HT-29): 3190 nM
growth at 0.1 µM [22]: 87%

O=C1/C(=C/c2ccc(Cl)cc2Cl)CN(S(=O)(=O)c2ccccc2)C/C1=C\c1ccc(Cl)cc1Cl
GI50 [1]: 347 nM
LC50 [1]: > 100000 nM
growth at 0.01 µM [1]: 91%
TGI [1]: 6610 nM
growth at 0.1 µM (SF-268): 98%
growth at 1 µM (MCF7): 14%
growth at 100 µM [2]: -20%
growth at 100 µM [3]: -2%
Activity (COLO 205): 22%
growth at 1 µM (NCI-H23 [4]): 18%
GI50 (HCT-116 [5]): 198 nM
TGI (HCT-116 [5]): 424 nM
CC50 (HCT-116 [5]): 908 nM
growth at 100 µM (HCT-116 [6]): -76%
GI50 (SN12C): 245 nM
TGI (SN12C): 718 nM
CC50 (SN12C): > 100000 nM
growth at 100 µM (NCI-H522 [7]): -56%
growth at 0.1 µM (SK-MEL-5 [8]): 98%
growth at 100 µM (HL-60(TB)): -13%
GI50 (NCI-H460): 209 nM
LC50 (NCI-H460): 955 nM
growth at 0.01 µM (NCI-H460): 103%
TGI (NCI-H460): 447 nM
growth at 100 µM (PC-3): -26%
growth at 1 µM (NCI-H522 [9]): 47%
GI50 [10]: 345 nM
TGI [10]: 6670 nM
CC50 [10]: > 100000 nM
growth at 0.1 µM [11]: 93%
growth at 0.1 µM [12]: 90%
growth at 0.1 µM [13]: 109%
GI50 [14]: 229 nM
LC50 [14]: > 100000 nM
growth at 0.01 µM [14]: 99%
TGI [14]: 955 nM
growth at 100 µM (M14): 31%
GI50 (NCI-H226 [15]): 1050 nM
LC50 (NCI-H226 [15]): 7940 nM
growth at 0.01 µM (NCI-H226 [15]): 92%
TGI (NCI-H226 [15]): 2880 nM
growth at 100 µM (IGROV-1): -47%
growth at 1 µM [16]: 50%
growth at 0.01 µM (SK-MEL-5 [17]): 94%
CC50 (SK-MEL-5 [17]): > 100000 nM
TGI (SK-MEL-5 [17]): > 100000 nM
growth at 1 µM [18]: -37%
GI50 (T47D): 1280 nM
TGI (T47D): 100000 nM
CC50 (T47D): > 100000 nM
growth at 0.1 µM (NCI-H23 [19]): 104%
GI50 (Malme-3M): 3240 nM
LC50 (Malme-3M): > 100000 nM
growth at 0.01 µM (Malme-3M): 118%
growth at 1 µM [20]: 22%
growth at 100 µM (NCI-H226 [21]): -55%
GI50 (HT-29): 293 nM
TGI (HT-29): 843 nM
CC50 (HT-29): > 100000 nM
growth at 0.1 µM [22]: 90%
